Values belong to the molecule of their own block, whether it stands above or below them. The source made the active and inactive calls. No cut-off for these calls is given here.
How the values were obtained:
MKN-45 [1] = experiment: Antiproliferative activity against human MKN45 cells after 3 days by CellTiter-Glo assay; assay type: functional, cell-based; settings: MKN-45, 72 h
[2] = Oral bioavailability in CD1 mouse at 20 mg/kg; assay type: ADME, organism-based; settings: in vivo
[3] = Cmax in CD1 mouse at 20 mg/kg, po; assay type: ADME, organism-based; design: dose 20 mg/kg, route oral; settings: in vivo
[4] = AUC (0 to last) in CD1 mouse at 20 mg/kg, po; assay type: ADME, organism-based; design: dose 20 mg/kg, route oral, time 0 - last; settings: plasma
[5] = Clearance in CD1 mouse at 2 mg/kg, iv; assay type: ADME, organism-based; design: dose 2 mg/kg, route intravenous; settings: in vivo
[6] = Half life in CD1 mouse at 2 mg/kg, iv; assay type: ADME, organism-based; design: dose 2 mg/kg, route intravenous; settings: in vivo
[7] = Volume of distribution at steady state in CD1 mouse at 2 mg/kg, iv; assay type: ADME, organism-based; design: dose 2 mg/kg, route intravenous; settings: in vivo, read-out: Vdss
[8] = Permeability of the compound at pH 7.4 by PAMPA; assay type: ADME; settings: read-out: permeability
Cytochrome P450 3A4 = Cytochrome P450 3A4 (Homo sapiens, UniProt P08684); experiment: Inhibition of CP3A4 (unknown origin)
MKN-45 [9] = experiment: Antitumor activity against human MKN45 cells xenografted in nu/nu CD1 mouse model assessed as maximum tumor regression at 200 mg/kg, po qd for 14 days; assay type: functional
MKN-45 [10] = experiment: Antitumor activity against human MKN45 cells xenografted in nu/nu CD1 mouse model assessed as maximum tumor regression at 25 mg/kg, po qd for 14 days; assay type: functional
Mus musculus [11] = experiment: Toxicity in human MKN45 cells xenografted nu/nu CD1 mouse model assessed as body weigh loss at 50 mg/kg, po qd for 14 days; assay type: organism-based, MKN-45; design: dose 50 mg/kg, route oral; settings: in vivo, 336 h
MKN-45 [12] = experiment: Antitumor activity against human MKN45 cells xenografted in nu/nu CD1 mouse model assessed as tumor growth inhibition at 50 mg/kg, po qd for 14 days; assay type: functional; settings: MKN-45, 336 h, read-out: TGI
MKN-45 [13] = experiment: Antitumor activity against human MKN45 cells xenografted in nu/nu CD1 mouse model assessed as tumor growth inhibition at 25 mg/kg, po qd for 14 days; assay type: functional; settings: MKN-45, 336 h, read-out: TGI
MKN-45 [14] = experiment: Antitumor activity against human MKN45 cells xenografted in nu/nu CD1 mouse model assessed as tumor growth inhibition at 200 mg/kg, po qd for 14 days; assay type: functional; settings: MKN-45, 336 h, read-out: TGI
MKN-45 [15] = experiment: Antitumor activity against human MKN45 cells xenografted in nu/nu CD1 mouse model assessed as tumor growth inhibition at 100 mg/kg, po qd for 14 days; assay type: functional; settings: MKN-45, 336 h, read-out: TGI
Mus musculus [16] = experiment: Toxicity in human MKN45 cells xenografted nu/nu CD1 mouse model assessed as body weigh loss at 25 mg/kg, po qd for 14 days; assay type: organism-based, MKN-45; design: dose 25 mg/kg, route oral; settings: in vivo, 336 h
Mus musculus [17] = experiment: Toxicity in human MKN45 cells xenografted nu/nu CD1 mouse model assessed as body weigh loss at 100 mg/kg, po qd for 14 days; assay type: organism-based, MKN-45; design: dose 100 mg/kg, route oral; settings: in vivo, 336 h
MKN-45 [18] = experiment: Antitumor activity against human MKN45 cells xenografted in nu/nu CD1 mouse model assessed as maximum tumor regression at 50 mg/kg, po qd for 14 days; assay type: functional
Mus musculus [19] = experiment: Toxicity in human MKN45 cells xenografted nu/nu CD1 mouse model assessed as body weigh loss at 200 mg/kg, po qd for 14 days; assay type: organism-based, MKN-45; design: dose 200 mg/kg, route oral; settings: in vivo, 336 h
MKN-45 [20] = experiment: Antitumor activity against human MKN45 cells xenografted in nu/nu CD1 mouse model assessed as maximum tumor regression at 100 mg/kg, po qd for 14 days; assay type: functional
Homo sapiens [21] = species: Homo sapiens; experiment: Ratio of IC50 for cMET Y1230H mutant (unknown origin) to IC50 for wild type cMET (unknown origin)
Homo sapiens [22] = species: Homo sapiens; experiment: Ratio of IC50 for cMET Y1230C mutant (unknown origin) to IC50 for wild type cMET (unknown origin)
KARPAS-299 [23] = experiment: Antitumor activity against human KARPAS299 xenograft model assessed as tumor growth inhibition at 50 mg/kg qd; assay type: functional; settings: read-out: TGI
KARPAS-299 [24] = experiment: Antitumor activity against human KARPAS299 xenograft model assessed as tumor growth inhibition up to 200 mg/kg qd; assay type: functional, organism-based; design: dose 200 mg/kg
[25] = target: Tyrosine-protein kinase ABL1 (Homo sapiens) (UniProt P00519); settings: 1 uM
Description: Inhibition of Abl (unknown origin) autophosphorylation at 1 uM

Homo sapiens [26] = species: Homo sapiens; settings: 1 uM
Description: Inhibition of aurora kinase (unknown origin) autophosphorylation at 1 uM

Mus musculus [27] = experiment: Inhibition of MET autophosphorylation at Y1349 in human MKN45 cells xenografted in mouse at 100 mg/kg, po up to 8 hrs; assay type: functional, organism-based; design: dose 100 mg/kg; settings: MKN-45
[28] = target: Hepatocyte growth factor receptor (Homo sapiens, UniProt P08581); settings: 1 uM
Description: Inhibition of cMET (unknown origin) autophosphorylation at 1 uM

[29] = target: Tyrosine-protein kinase ABL2 (Homo sapiens) (UniProt P42684); settings: 1 uM
Description: Inhibition of ARG (unknown origin) autophosphorylation at 1 uM

IC50 (MKN-45 [1]): 3.1 µM
SMILES: C[C@@H](Oc1c(N)ncc2c(C3CCNCC3)coc12)c1c(Cl)ccc(F)c1Cl

IC50 (MKN-45 [1]): 4.6 µM
SMILES: C[C@@H](Oc1c(N)ncc2c(-c3ccccn3)coc12)c1c(Cl)ccc(F)c1Cl

IC50 (MKN-45 [1]): 0.33 µM | Papp [8]: 199 ×10⁻⁶ cm/s
SMILES: CC(=O)N1CC=C(c2coc3c(O[C@H](C)c4c(Cl)ccc(F)c4Cl)c(N)ncc23)CC1

Ratio IC50 (Homo sapiens [21]): 8 | Ratio IC50 (Homo sapiens [22]): > 600
SMILES: C[C@@H](Oc1cc(-c2cnn(C3CCNCC3)c2)cnc1N)c1c(Cl)ccc(F)c1Cl [CRIZOTINIB]
inhibition in vivo at 50 mg/kg (KARPAS-299 [23]): 96%

inhibition [25]: > 50% | inhibition (Homo sapiens [26]): > 50% | inhibition [28]: > 50% | Ratio IC50 (Homo sapiens [22]): 3 | inhibition [29]: > 50%
SMILES: C[C@@H](Oc1c(N)ncc2c(C3=CCN(C(N)=O)CC3)coc12)c1c(Cl)ccc(F)c1Cl
TGI (KARPAS-299 [24]): inactive | inhibition (Mus musculus [27]): Active

IC50 (MKN-45 [1]): 8.6 µM
SMILES: Nc1ncc2c(-c3cnn(C4CCNCC4)c3)coc2c1OCc1c(Cl)ccc(F)c1Cl

IC50 (MKN-45 [1]): 2 µM
SMILES: CC(Oc1c(N)ncc2c(-c3cnn(C4CCNCC4)c3)coc12)c1c(Cl)cccc1Cl (racemic)

IC50 (MKN-45 [1]): 5.1 µM
SMILES: CC(Oc1c(N)ncc2c(-c3cnn(C4CCNCC4)c3)coc12)c1cccc(F)c1Cl (racemic)

IC50 (MKN-45 [1]): 0.48 µM
SMILES: CC(Oc1c(N)ncc2c(-c3cnn(C4CCNCC4)c3)coc12)c1c(Cl)c(F)cc(F)c1Cl (racemic)

Ratio IC50 (Homo sapiens [21]): 8 | Ratio IC50 (Homo sapiens [22]): > 600
SMILES: OCCn1cc(-c2cnc3nnn(Cc4ccc5ncccc5c4)c3n2)cn1

The next lines start with the molecule.

SMILES: CNC(=O)N1CC=C(c2coc3c(O[C@H](C)c4c(Cl)ccc(F)c4Cl)c(N)ncc23)CC1
IC50 (MKN-45 [1]): 0.19 µM

SMILES: C[C@@H](Oc1c(N)ncc2c(-c3cnn(C4CCNCC4)c3)coc12)c1c(Cl)ccc(F)c1Cl.Cl.Cl.Cl.Cl
bioavailability [2]: 35% | Cmax [3]: 150 nM | AUC(0-t) [4]: 509 ng·h/mL

SMILES: C[C@@H](Oc1c(N)ncc2c(-c3cnn(C4CCNCC4)c3)coc12)c1c(Cl)ccc(F)c1Cl
clearance [5]: 227 mL/min/kg | IC50 (MKN-45 [1]): 0.3 µM | half-life [6]: 36 min | Vd [7]: 12 L/kg

SMILES: CNC(=O)c1coc2c(O[C@H](C)c3c(Cl)ccc(F)c3Cl)c(N)ncc12
IC50 (MKN-45 [1]): 3.5 µM

SMILES: CC(=O)N1CCC(n2cc(-c3coc4c(O[C@H](C)c5c(Cl)ccc(F)c5Cl)c(N)ncc34)cn2)CC1
IC50 (MKN-45 [1]): 0.67 µM | Papp [8]: 318 ×10⁻⁶ cm/s

SMILES: CC(Oc1c(N)ncc2c(-c3cnn(C4CCNCC4)c3)coc12)c1c(Br)ccc(F)c1Cl (racemic)
IC50 (MKN-45 [1]): 0.51 µM

SMILES: C[C@@H](Oc1c(N)ncc2c(-c3ccncc3)coc12)c1c(Cl)ccc(F)c1Cl
IC50 (MKN-45 [1]): 0.9 µM

SMILES: C[C@@H](Oc1c(N)ncc2c(-c3ccccc3)coc12)c1c(Cl)ccc(F)c1Cl
IC50 (MKN-45 [1]): 11 µM

SMILES: CC(Oc1c(N)ncc2c(-c3cnn(C4CCNCC4)c3)coc12)c1c(Cl)ccc(F)c1Cl (racemic)
IC50 (MKN-45 [1]): 0.57 µM | IC50 (Cytochrome P450 3A4): > 20 µM

SMILES: COC(=O)N1CC=C(c2coc3c(O[C@H](C)c4c(Cl)ccc(F)c4Cl)c(N)ncc23)CC1
IC50 (MKN-45 [1]): 0.85 µM

SMILES: CS(=O)(=O)O.C[C@@H](Oc1c(N)ncc2c(C3=CCN(C(N)=O)CC3)coc12)c1c(Cl)ccc(F)c1Cl
bioavailability [2]: 83% | Activity (MKN-45 [9]): 49% | Activity (MKN-45 [10]): 0% | Activity (Mus musculus [11]): 2% | inhibition in vivo at 50 mg/kg (MKN-45 [12]): 51% | Cmax [3]: 4800 nM | inhibition in vivo at 25 mg/kg (MKN-45 [13]): 13% | inhibition in vivo at 200 mg/kg (MKN-45 [14]): 100% | inhibition in vivo at 100 mg/kg (MKN-45 [15]): 100% | Activity (Mus musculus [16]): 6% | Activity (Mus musculus [17]): 3% | Activity (MKN-45 [18]): 0% | Activity (Mus musculus [19]): 3% | AUC(0-t) [4]: 5420 ng·h/mL | Activity (MKN-45 [20]): 27%

SMILES: C[C@H](Oc1c(N)ncc2c(-c3cnn(C4CCNCC4)c3)coc12)c1c(Cl)ccc(F)c1Cl
IC50 (MKN-45 [1]): 4.5 µM

SMILES: C#CCC(Oc1c(N)ncc2c(-c3cnn(C4CCNCC4)c3)coc12)c1c(Cl)ccc(F)c1Cl (racemic)
IC50 (MKN-45 [1]): 0.36 µM | IC50 (Cytochrome P450 3A4): 1.6 µM

SMILES: CCCC(Oc1c(N)ncc2c(-c3cnn(C4CCNCC4)c3)coc12)c1c(Cl)ccc(F)c1Cl (racemic)
IC50 (MKN-45 [1]): 2.7 µM

SMILES: CC(Oc1c(N)ncc2c(-c3cnn(C4CCNCC4)c3)coc12)c1c(Cl)cc(Cl)cc1Cl (racemic)
IC50 (MKN-45 [1]): 3.6 µM

SMILES: C[C@@H](Oc1c(N)ncc2c(-c3cccnc3)coc12)c1c(Cl)ccc(F)c1Cl
IC50 (MKN-45 [1]): 2.7 µM

SMILES: CCC(Oc1c(N)ncc2c(-c3cnn(C4CCNCC4)c3)coc12)c1c(Cl)ccc(F)c1Cl (racemic)
IC50 (MKN-45 [1]): 3.6 µM

SMILES: COc1ccc(Cl)c([C@@H](C)Oc2c(N)ncc3c(-c4cnn(C5CCNCC5)c4)coc23)c1Cl
IC50 (MKN-45 [1]): 1.6 µM

SMILES: C[C@@H](Oc1c(N)ncc2c(C3=CCNCC3)coc12)c1c(Cl)ccc(F)c1Cl
IC50 (MKN-45 [1]): 0.45 µM

SMILES: C[C@@H](Oc1c(N)ncc2c(-c3cn[nH]c3)coc12)c1c(Cl)ccc(F)c1Cl
IC50 (MKN-45 [1]): 3.3 µM

SMILES: C[C@@H](Oc1c(N)ncc2c(C3=CCN(C(=O)N(C)C)CC3)coc12)c1c(Cl)ccc(F)c1Cl
IC50 (MKN-45 [1]): 0.51 µM

SMILES: CC(Oc1c(N)ncc2c(-c3cnn(C4CCNCC4)c3)coc12)c1cc(F)ccc1Cl (racemic)
IC50 (MKN-45 [1]): 6.4 µM

SMILES: CC(Oc1c(N)ncc2c(-c3cnn(C4CCNCC4)c3)coc12)c1c(Cl)ccc(Cl)c1Cl (racemic)
IC50 (MKN-45 [1]): 1.3 µM

Reference: ChEMBL document CHEMBL2401646 (Bioorg Med Chem Lett, 2013)
